In patent US9999687B2, “Fluorescent imaging agents” (VisEn Medical, Inc., priority 2008, dated 2018):
[ ]: non-standard residue; d: D form. The star is where a group is joined. YPEG 2×20 kDa = Y-shaped PEG of 2×20 kDa; Pent4ynoyl = C#CCCC(=O)*; F5 = not defined here; F6 = not defined here; βAla = NCCC(=O)O

What was measured:
[1] = test system: Cathepsin B, Cathepsin K, Cathepsin L, or Cathepsin S; assay: Enzyme activation profiles of R51 to R59, cathepsins; format: biochemical; details: compound 0.5 uM, enzyme 0.05 uM, monitored for 24 hours; FIG. 15
Experimental: Compounds at a concentration of 0.5 uM were incubated with Cathepsin B, Cathepsin K, Cathepsin L, or Cathepsin S at a concentration of 0.05 uM. The reaction buffers used were as follows: Cathepsin K—50 mM MES, pH 5.0, 2.5 mM EDTA, 2.5 mM DTT; Cathepsin B—25 mM MES, pH 5.0, 1 mM DTT; Cathepsin S—50 mM NaOAc, pH 4.5, 5 mM DTT, 0.25M NaCl; Cathepsin L—50 mM MES, pH 6, 5 mM DTT. The activity was monitored for 24 hours with a Gemini (Molecular Devices) fluorescence plate reader at excitation 663 nm and emission 690 nm with a cut off of […].

[2] = test system: atherosclerotic plaque in ApoE -/- knockout mice; assay: Imaging of macrophage activity in atherosclerotic plaque; format: in vivo; details: intravenous, 6 hours post-injection
Experimental: Age-matched C57BL6 wild type female mice (Charles river Laboratories) were fed a normal diet and ApoE −/− knockout female mice (Jackson Laboratories) were fed a high cholesterol diet for 10-20 weeks. The mice were injected intravenously with compounds of formula R51 ([mPEG-20kDa-Suc]-Lys(F6)-Gly-Phe-Leu-Gly-Lys(F6)-[NH2]) (SEQ ID NO:435) and R55 ([mPEG-20kDa-Suc]-Lys(F6)-Arg-Arg-Lys(F6)-[NH2]) (SEQ ID NO:438). The mice were then imaged at 6 and 24 hours by fluorescence molecular tomography or fluorescence reflectance using an FMT2500 (VisEn Medical, Bedford, Mass.).

[3] = target: T1, Recombinant human Cathepsin B (Homo sapiens, UniProt P07858); assay: Enzyme activation profile of Q65, Cathepsin B; format: biochemical; details: probe 0.5 μM, enzyme 0.05 μM, room temperature, monitored 0-24 hours; FIG. 5
T1 construct: purchased R&D Systems
Experimental: The reactions were performed with appropriate buffer at room temperature in a 96-well plate with a final assay volume of 250 μL and probe and enzyme concentrations of 0.5 μM and 0.05 μM, respectively. The buffer for Cathepsin B was 25 mM MES (pH 5.0), 1 mM DTT. Recombinant human Cathepsin B (R&D Systems) was activated in buffer of 25 mM MES (pH 5.0) and 5 mM DTT for 15 minutes at room temperature. Recombinant human Cathepsin L (R&D Systems) was activated in buffer of 50 mM MES (pH 6.0), 5 mM DTT, for 15 minutes on ice. Recombinant mouse Cathepsin Z (R&D Systems) was activated in buffer of 25 mM NaOAc (pH 3.0), 5 mM DTT for 5 minutes at room temperature. The buffer for plasmin (CalBiochem) and trypsin (Sigma) was PBS at pH 7.4.
The plate was incubated at room temperature and the activity monitored at 0, 1, 3, 5, and 24 hours with a Gemini (Molecular Devices) plate reader at excitation wavelength 663 nm, emission 690 nm, and cut off 665 nm. The activity was calculated as the fold of activation by comparing the fluorescence of the enzyme with probe to the fluorescence of probe alone.

[4] = test system: inflamed atherosclerotic plaques of high cholesterol fed apoE-/- mice; assay: Cardiovascular disease imaging, fluorescence reflectance; format: in vivo; details: 2 nmol, 24 hours post-injection, ex vivo fluorescence reflectance imaging; FIG. 8
Experimental: High cholesterol fed apoE−/− mice were injected with 2 nmol of imaging agent and in vivo imaging was performed with ex vivo fluorescence reflectance imaging.

recombinant human MMP-13 = target: T2, recombinant human MMP-13 (Homo sapiens, UniProt P45452); assay: Enzyme activation of R22, MMP-13; format: biochemical; details: 0.5 μM R22, 0.05 μM enzyme, room temperature, 24 hours; FIG. 13
T2 construct: purchased
Experimental: (§1) Activation by recombinant enzymes was carried out in 250 μL volumes set up in 96 well plates. MMPs were activated prior to the reaction according to manufacturers' protocols. Reactions contained 0.5 μM of R22 and 0.05 μM of activated enzyme in the appropriate activation buffer for each enzyme and incubated at room temperature for 24 hours. The plates were read at 24 hours with excitation/emission wavelength 740/770 nm. Fluorescence readings were performed using a Gemini (Molecular Devices) Fluorescence Plate Reader. Wells in which no enzyme was added were used as controls. Fold activation was obtained by dividing the enzyme-activated read-out (in relative fluorescence units) by its corresponding control well.

trypsin = assay: Enzyme activation of R22, trypsin; format: biochemical; details: 0.5 μM R22, 0.05 μM enzyme, room temperature, 24 hours; FIG. 13
Experimental: as §1

[5] = test system: carrageenan induced paw edema; assay: Inflammation imaging, carrageenan induced paw edema; format: in vivo, BALB/c female mice; details: 1% carrageenan subcutaneously, fluorescence molecular tomography; FIG. 9
Experimental: Briefly, BALB/c female mice 6-8 weeks old (Charles River Laboratory, Wilmington, Mass.) were injected subcutaneously with a 1% solution of carrageenan in PBS. After 1 minute post-injection, mice were injected the imaging agent Q91. Imaging was conducted at various time points using a Fluorescence Molecular Tomography system (VisEn Medical, Woburn Mass.).

**Q.** Which results are given for “[mPEG-20kDa-Suc]-Lys(F6)-Gly-Phe-Leu-Gly-Lys(F6)-[NH2] ({mPEG‑20kDa‑Suc}-K(F6)GFLGK(F6)-NH2; reading uncertain; also: printed as [mPEG-20kDa-Suc]-Lys(F6)-Gly-Phe-Leu-Gly-Lys(F6)-[NH2]) [Agent R51]”?
**A.** activation by various Cathepsin proteases compared with the other imaging agents [1]: greater than that of the other imaging agents; fluorescent signal in ApoE knockout mice versus wild type controls ([2]; fluorescence molecular tomography, FIG. 17): greater fluorescent signal in the ApoE knockout mice over controls; fluorescent signal in ApoE knockout mice versus wild type controls ([2]; tomography and reflectance, FIG. 16): greater fluorescent signal in the ApoE knockout mice over controls

**Q.** Which “activation by Cathepsin B (fold of activation)” value [3] does the source give for “Pentynoyl-Lys(F5)-Gly-Phe-Leu-Gly-βAla-Lys(F5)-PEG20kDa (Pent4ynoyl-K(F5)GFLG[βAla]K(F5)-PEG20kDa; reading uncertain; also: printed as Pentynoyl-Lys(F5)-Gly-Phe-Leu-Gly-βAla-Lys(F5)-PEG20kDa) [Agent Q65]” here?
**A.** activated by Cathepsin B

**Q.** What about the “fluorescence in atherosclerotic plaques” value [4] of the same substance?
**A.** Fluorescence was detected in plaque-laden vascular sections in the aortic root, the arch and carotid arteries

**Q.** Which “activation by recombinant human MMP-13 (fold activation)” value (recombinant human MMP-13) does the source give for “[F6]-Gly-Pro-Leu-Gly-Val-Arg-Lys(F6)-[YPEG 2×20 kDa] (F6-GPLGVRK(F6)-{YPEG 2×20 kDa}; reading uncertain; also: printed as [F6]-Gly-Pro-Leu-Gly-Val-Arg-Lys(F6)-[YPEG 2×20 kDa]) [Agent R22]” here?
**A.** activated primarily

**Q.** What about the “activation by trypsin (fold activation)” value (trypsin) of the same substance?
**A.** activated primarily

**Q.** With “Pentynoyl-Lys(F5)-Pro-Leu-Gly-Val-Arg-Lys(F5)-PEG20kDa (Pent4ynoyl-K(F5)PLGVRK(F5)-PEG20kDa; reading uncertain; also: printed as Pentynoyl-Lys(F5)-Pro-Leu-Gly-Val-Arg-Lys(F5)-PEG20kDa) [Agent Q91]” as the substance, how does the “fluorescence in carrageenan injected paw versus control paw” value [5] read?
**A.** significantly more fluorescence is observed in the mouse paw injected with carrageenan compared to the control paw
